Read-outs that look alike come from different tables or passages of the source.
Assays:
[1] = biological target: T1, Acetylcholinesterase (AChE) (Rattus norvegicus, UniProt P37136); test: biochemical; assay type: biochemical, Male Rats (Sprague Dawley), brain
T1 construct: The brain was removed and homogenised; from tissue; host or cells: rat brain (male Sprague Dawley), Triton X100 detergent supernatant of the EDTA-buffer pellet
Protocol: (i) Enzyme Source for AChE
5 Male Rats (Sprague Dawley) weighing approx 250 g were killed by CO2 overdose and cervical dislocation.
The brain was removed and homogenised (9 strokes at 840 rpm with 4 volumes of phosphate buffer pH 7.4+10 mM (EDTA) and centrifuged at 27,000 g for 30 minutes.
The supernatant was discarded and the pellet resuspended in phosphate buffer with 10 mM EDTA+1- Triton X100 (2 ml/g wet weight). The crude homogenate was centrifuged at 27,000 g for 30-40 minutes.
The pellet was discarded and the supernatant was dispensed into 0.5 ml aliquots and stored at -20° C. until required.
Phosphate Buffer (0.1M. pH 7.4)
Made up to 500 ml with distilled H2 O, pH 7.4.
0.5 ml aliquots of brain (enzyme solution) as prepared above were thawed out. 2 ml of phosphate buffer was added to each aliquot. 2 ml of the enzyme solution was incubated with 2 ml PDS for 60 minutes at 0° C. The composition of blank, control and test solutions are given below:
0.9 ml phosphate buffer (0.1 M, pH 7.4)
0.85 ml phosphate buffer (0.1M, pH 7.4)
0.05 ml acetylthiocholine (5.2 mM)
(§1) 0.8 ml phosphate buffer (0.1M, pH 7.4)
0.05 ml Acetylthiocholine 5.2 mM
Change in absorbance was measured at 30 second intervals for 3 minutes at […]. The control was taken as 100%. Inhibitor was calculated as a percentage of the control. A graph of Log of inhibitor conc. versus % control was plotted and IC5. values calculated by interpolation.

[2] = biological target: T2, Butyrylcholinesterase (BChE) (Equus caballus, UniProt P81908); test: biochemical
T2 construct: purchased Sigma c-7512
Protocol: The following components were utilised:
Phosphate Buffer (0.1M, pH 7.4)
Made up to 500 ml with distilled H2 O, pH 7.4
1 ml of enzyme solution (i), was incubated with 2 ml PDS for 60 minutes at 0° C.
Components of the assay blank, controls and test solutions are provided below:
0.9 ml phosphate buffer (0.1M, pH 7.4)
0.85 ml phosphate buffer (0.1 M, pH 7.4)
0.05 ml Acetylthiocholine (5.2 mM)
as §1
Control was taken as 100%. Inhibitor was calculated as a percentage of control. A graph of Log of inhibitor conc. versus % control was plotted and IC50 values calculated by interpolation.

[3] = tested on: noradrenaline (NA) uptake; test: Monoamine Uptake Inhibition Assay, noradrenaline (synaptosomal preparation); assay type: biochemical, rat (Sprague Dawley)
Protocol: (§2) One male rat (Sprague Dawley) weighing approx. 200-250 g was sacrificed by cervical dislocation. The brain was dissected out and the cerebellum discarded. The brain was then weighed and 10 ml ice cold sucrose (0.32M) added per gram tissue. […] The pellet was discarded and the supernatant retained (crude synaptosomal preparation).
(§3) All tubes were set up in triplicate. […] 100 μl of the prepared synaptosomal preparation was added to each tube and incubated for 5 minutes in a shaking water bath at 37° C. Any reaction was stopped by plunging the tubes into an ice water bath. ^3 H NA (10^-7 M) or ^3 H 5-HT ([…]) was added to each tube and incubated for 5 minutes in a shaking water bath at 37° C. Any reaction was stopped by plunging the tubes into an ice-water bath. Accumulated monoamines were collected using a Brandell Cell Harvester under mild vacuum. Filters were rinsed (2×) using 4 ml of ice-cold 0.9% saline. Scintillation fluid was added (4 ml/tube). Radioactivity was measured on a scintillation counter.
(§4) Non-specific values were subtracted from total values. The control was taken as 100%. Drug effects were calculated as a percentage of control inhibitor value. A graph of log of drug concentration versus % control was plotted and IC50 values were calculated by interpolation.

5-HT (serotonin) uptake = assay type: biochemical, rat (Sprague Dawley)
Protocol: as §2, §3, §4

[4] = Table 1, form BASE, ±SEM, n = 5, read-out: IC50 AChE
[5] = Table 1, form SALT, ±SEM, n = 5, read-out: IC50 AChE
[6] = Table 1, form SALT, ±SEM, n = 5, read-out: IC50 BChE
[7] = Table 1, form BASE, n = 5, read-out: IC50 NA UPTAKE
[8] = Table 1, form SALT, n = 5, read-out: IC50 NA UPTAKE
[9] = Table 1, form BASE, n = 5, read-out: IC50 5HT UPTAKE
[10] = Table 1, form SALT, n = 5, read-out: IC50 5HT UPTAKE
[11] = Table 3, read-out: NA UPTAKE INHIBITION
[12] = Table 3, read-out: 5-HT UPTAKE INHIBITION

T2 sequence (P81908 whole entry): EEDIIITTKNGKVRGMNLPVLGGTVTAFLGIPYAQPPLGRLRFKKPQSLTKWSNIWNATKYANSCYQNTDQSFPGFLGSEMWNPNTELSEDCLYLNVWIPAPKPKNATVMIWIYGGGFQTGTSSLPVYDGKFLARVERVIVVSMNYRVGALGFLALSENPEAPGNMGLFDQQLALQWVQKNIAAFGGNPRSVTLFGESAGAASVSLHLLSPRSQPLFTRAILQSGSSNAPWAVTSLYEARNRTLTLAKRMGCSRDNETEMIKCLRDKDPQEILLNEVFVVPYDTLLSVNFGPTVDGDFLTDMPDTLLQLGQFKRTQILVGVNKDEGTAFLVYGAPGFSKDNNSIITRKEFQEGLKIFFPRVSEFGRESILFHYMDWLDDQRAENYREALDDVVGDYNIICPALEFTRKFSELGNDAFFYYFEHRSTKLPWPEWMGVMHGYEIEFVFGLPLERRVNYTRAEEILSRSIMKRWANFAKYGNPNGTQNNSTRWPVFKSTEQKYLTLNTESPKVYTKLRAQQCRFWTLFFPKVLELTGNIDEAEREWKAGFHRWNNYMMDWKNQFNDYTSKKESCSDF
T1 sequence (P37136 32-614): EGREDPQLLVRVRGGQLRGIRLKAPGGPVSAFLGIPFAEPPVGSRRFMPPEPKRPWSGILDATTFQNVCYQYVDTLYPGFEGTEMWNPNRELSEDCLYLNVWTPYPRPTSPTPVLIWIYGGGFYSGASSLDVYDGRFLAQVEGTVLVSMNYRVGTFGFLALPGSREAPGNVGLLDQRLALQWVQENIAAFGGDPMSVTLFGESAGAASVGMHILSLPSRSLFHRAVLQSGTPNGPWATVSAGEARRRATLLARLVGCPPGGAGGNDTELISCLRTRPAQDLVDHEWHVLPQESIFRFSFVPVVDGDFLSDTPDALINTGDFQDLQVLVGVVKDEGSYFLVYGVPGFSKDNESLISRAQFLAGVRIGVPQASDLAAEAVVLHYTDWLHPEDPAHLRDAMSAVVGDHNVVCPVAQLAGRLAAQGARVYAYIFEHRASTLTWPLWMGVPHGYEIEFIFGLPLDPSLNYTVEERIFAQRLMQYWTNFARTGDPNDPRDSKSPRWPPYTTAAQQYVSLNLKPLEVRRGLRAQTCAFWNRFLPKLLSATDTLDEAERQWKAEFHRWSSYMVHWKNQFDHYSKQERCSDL

Structure (SMILES)	IC50 [1, 4] [µM]	IC50 [1, 5] [µM]	IC50 [2, 6] [µM]	IC50 [3, 7] [µM]	IC50 [3, 8] [µM]	IC50 (5-HT (serotonin) uptake; [9]) [µM]	IC50 (5-HT (serotonin) uptake; [10]) [µM]	IC50 ([2]; Table 1, form BASE, ±SEM, n = 5, read-out: IC50 BChE) [µM]	AChE TACRINE RATIO [1]	IC50 ([1]; Table 2, read-out: AChE IC50) [µM]	BChE TACRINE RATIO [2]	IC50 ([2]; Table 2, read-out: BChE IC50) [µM]	NA UPTAKE INHIBITION TACRINE RATIO [3]	IC50 [3, 11] [µM]	5-HT UPTAKE INHIBITION TACRINE RATIO (5-HT (serotonin) uptake)	IC50 (5-HT (serotonin) uptake; [12]) [µM]	IC50 [1] [µM]	AChE TACRINE RATIO ([1]; Table 2, relative to tacrine = 1.000)
COc1ccc2c(c1)CCCc1c-2nc2ccccc2c1N [Compound 1, 13-Amino-1,2 dihydro-5-methoxy[1H] benz [7] annuleno [5,4-b] quinoline]	68.8	17.4	34.4	3.6	1.8	0.7	0.02											
Nc1c2c(nc3ccccc13)-c1ccccc1C2 [Compound 2, 6-Amino-4,5-benzo-[5H]-cyclopenta-[1,2-b]-quinoline]		0.35			2.3		2.2											
Nc1c2c(nc3ccccc13)-c1ccccc1CC2 [Compound 3, 7 Amino-5,6-dihydro-benz-[c]-acridine]	37.4	7.8	3.8	12.1	13.2	4.6	2											
COc1cccc2c1CCc1c-2nc2ccccc2c1N [Compound 4, 7-Amino-5,6-dihydro-4-methoxybenz-[c]-acridine]	47.5	17.1	1.9	1.4	12.2	5.8	2.1	10.3										
Nc1c2c(nc3ccccc13)-c1ccc(Cl)cc1CC2 [Compound 5, 7-Amino-5,6-dihydro-3-chlorobenz-[c]-acridine]	144	17.9	7.1	4.1	6.1	14.3	5.2											
Nc1c2c(nc3ccccc13)-c1ccccc1CCC2 [Compound 6, 8-Amino-6,7-dihydro-5H-benzo-[6, 7] cyclohepta [1,2-b] quinoline]	329	17.5	4		1.9	4.7	1											
Nc1c2c(nc3ccc(F)cc13)CCC2 [Compound 11, 9-Amino-7-fluoro-2,3-dihydro-1H-cyclopenta-[b] quinoline]									0.650	0.12	0.033	0.75	0.558	12	2.054	3.7		
Nc1c2c(nc3c(O)cccc13)CCC2 [Compound 12, 9-Amino-5-hydroxy-2,3-dihydro-1H-cyclopenta [b] quinoline]									0.078	1	0.050	0.5	9.571	0.7	0.524	14.5		
Nc1c2c(nc3c(F)cccc13)CCC2 [Compound 13, 9-Amino-5-fluoro-2,3-dihydro-1H-cyclopenta-[1,2-b] quinoline]									0.269	0.29	0.093	0.27	9.571	0.7	0.181	42		
Nc1c2c(nc3cccc(F)c13)CCC2 [Compound 14, 9-Amino-8-fluoro-2,3-dihydro-1H-cyclopenta-[b] quinoline]									1.000	0.078	0.017	1.51	2.030	3.3	0.177	43		
Nc1c2c(nc3cc(F)ccc13)CCC2 [Compound 15, 9-amino-6-fluoro-2,3-dihydro-1H-cyclopenta [b] quinoline]									1.219	0.064	0.610	0.041	9.571	0.7	0.345	22		
Nc1c2c(nc3cccc(Cl)c13)CCC2 [Compound 16, 9-Amino-8-chloro-2,3-dihydro-1H-cyclopenta[b]quinoline]									0.557	0.14	0.047	0.53	3350.000	0.002	0.195	39		
Nc1c2c(nc3ccc(Cl)cc13)CCC2 [Compound 19, 9-Amino-7-chloro-2,3-dihydro-1H-cyclopenta-[b] quinoline]									0.060	1.3	0.019	1.32	2.481	2.7	1.086	7		
c1ccc(CNc2c3c(nc4ccccc24)CCC3)cc1 [Compound 28, N-(Phenylmethyl)-9-amino-2,3-dihydro-1H-cyclopenta[1,2-b] quinoline]											0.002	13.8			1.310	5.8	39.6	0.002
Cc1cc(C)c2c(N)c3c(nc2c1)CCC3 [Compound 30, 9-Amino-6,8-dimethyl-2,3-Dihydro-1H -cyclopenta [1,2-b] quinoline]									0.600	0.13	0.035	0.71			0.938	8.1		

Source: patent US6130228A, “Polycyclic compounds” (priority 1995, dated 2000)
